Measured values from ChEMBL document CHEMBL3045223, “Synthesis, nematicidal and antimicrobial properties of Bis-[4-methoxy-3-[3-(4-fluorophenyl)-6-(4-methylphenyl)-2(aryl)-tetrahydro-2H-pyrazolo[3,4-d]thiazol-5-yl]phenyl]methanes” (2009).
Values after ≈ are worked out from the molar mass of the structure shown. Active and inactive are the calls of the source. The calls are words filed in the database; no cut-off is given here.

Key:
Format in all cases: functional
Pseudomonas aeruginosa [1] = assay: Antibacterial activity against Pseudomonas aeruginosa MTCC 741 assessed as inhibition zones at 300 ug/disk at 37 degC for 24 hr; conditions: MTCC 741, 24 h, read-out: IZ
Caenorhabditis elegans = assay: Nematicidal activity against Caenorhabditis elegans assessed as immobility; conditions: read-out: LD50 (the source's name)
Candida albicans [2] = assay: Antifungal activity against Candida albicans ATCC 10231 assessed as growth inhibition at 37 degC for 48 hr; conditions: ATCC 10231, 48 h
Bacillus subtilis [3] = assay: Antibacterial activity against Bacillus subtilis MTCC 441 assessed as growth arrest at 37 degC for 24 hr; conditions: MTCC 441, 24 h
[4] = tested on: Trichophyton mentagrophytes; assay: Antifungal activity against Trichophyton mentagrophytes IFO 40996 assessed as growth inhibition at 300 ug/disc at 37 degC for 48 hr
Staphylococcus aureus [5] = assay: Antibacterial activity against Staphylococcus aureus MTCC 96 assessed as inhibition zones at 300 ug/disc at 37 degC for 24 hr; conditions: MTCC 96, 24 h, read-out: IZ
Aspergillus fumigatus [6] = assay: Antifungal activity against Aspergillus fumigatus HIC 6094 assessed as growth inhibition at 300 ug/disc at 37 degC for 48 hr
[7] = tested on: Chromobacterium violaceum; assay: Antibacterial activity against Chromobacterium violaceum MTCC 2656 assessed as growth arrest at 37 degC for 24 hr; conditions: MTCC 2656, 24 h
Bacillus subtilis [8] = assay: Antibacterial activity against Bacillus subtilis MTCC 441 assessed as inhibition zones at 300 ug/disk at 37 degC for 24 hr; conditions: MTCC 441, 24 h, read-out: IZ
Candida albicans [9] = assay: Antifungal activity against Candida albicans ATCC 10231 assessed as growth inhibition at 300 ug/disk at 37 degC for 48 hr; conditions: for zone of inhibition at 300 µg/disc: ATCC 10231, 48 h, read-out: IZ
[10] = tested on: Chromobacterium violaceum; assay: Antibacterial activity against Chromobacterium violaceum MTCC 2656 assessed as inhibition zones at 300 ug/disk at 37 degC for 24 hr; conditions: MTCC 2656, 24 h, read-out: IZ
[11] = tested on: Ditylenchus myceliophagus; assay: Nematicidal activity against Ditylenchus myceliophagus assessed as immobility; conditions: read-out: LD50 (the source's name)
Klebsiella aerogenes [12] = assay: Antibacterial activity against Enterobacter aerogenes MTCC 39 assessed as growth arrest at 37 degC for 24 hr; conditions: MTCC 39, 24 h
Trichophyton rubrum [13] = assay: Antifungal activity against Trichophyton rubrum IFO 9185 assessed as growth inhibition at 37 degC for 48 hr; conditions: IFO 9185, 48 h
[14] = tested on: Lysinibacillus sphaericus; assay: Antibacterial activity against Lysinibacillus sphaericus MTCC 11 assessed as growth arrest at 37 degC for 24 hr; conditions: MTCC 11, 24 h
[15] = tested on: Lysinibacillus sphaericus; assay: Antibacterial activity against Lysinibacillus sphaericus MTCC 11 assessed as inhibition zones at 300 ug/disk at 37 degC for 24 hr; conditions: MTCC 11, 24 h, read-out: IZ
Klebsiella aerogenes [16] = assay: Antibacterial activity against Enterobacter aerogenes MTCC 39 assessed as inhibition zones at 300 ug/disk at 37 degC for 24 hr; conditions: MTCC 39, 24 h, read-out: IZ
Staphylococcus aureus [17] = assay: Antibacterial activity against Staphylococcus aureus MTCC 96 assessed as growth arrest at 37 degC for 24 hr; conditions: MTCC 96, 24 h
[18] = tested on: Trichophyton mentagrophytes; assay: Antifungal activity against Trichophyton mentagrophytes IFO 40996 assessed as growth inhibition at 37 degC for 48 hr
Aspergillus fumigatus [19] = assay: Antifungal activity against Aspergillus fumigatus HIC 6094 assessed as growth inhibition at 37 degC for 48 hr; conditions: HIC 6094, 48 h
Trichophyton rubrum [20] = assay: Antifungal activity against Trichophyton rubrum IFO 9185 assessed as growth inhibition at 300 ug/disk at 37 degC for 48 hr; conditions: for zone of inhibition at 300 µg/disc: IFO 9185, 48 h, read-out: IZ
Pseudomonas aeruginosa [21] = assay: Antibacterial activity against Pseudomonas aeruginosa MTCC 741 assessed as growth arrest at 37 degC for 24 hr; conditions: MTCC 741, 24 h

Row | SMILES | zone of inhibition at 300 µg/disc (Pseudomonas aeruginosa [1]) | LC50 (Caenorhabditis elegans) | MBC (Candida albicans [2]) | MIC (Candida albicans [2]) | MBC (Bacillus subtilis [3]) | MIC (Bacillus subtilis [3]) | zone of inhibition at 300 µg/disc (Staphylococcus aureus [5]) | MBC [7] | MIC [7] | zone of inhibition at 300 µg/disc (Bacillus subtilis [8]) | zone of inhibition at 300 µg/disc [10] | LC50 [11] | MBC (Klebsiella aerogenes [12]) | MIC (Klebsiella aerogenes [12]) | MBC (Trichophyton rubrum [13]) | MIC (Trichophyton rubrum [13]) | MBC [14] | MIC [14] | zone of inhibition at 300 µg/disc [15] | zone of inhibition at 300 µg/disc (Klebsiella aerogenes [16]) | other results
1 | COc1ccc(Cc2ccc(OC)c(C3SC4C(=NN(C(C)C)C4c4ccc(F)cc4)N3c3ccc([N+](=O)[O-])cc3)c2)cc1C1SC2C(=NN(C(C)C)C2c2ccc(F)cc2)N1c1ccc([N+](=O)[O-])cc1 (stereo not drawn) | 10 mm | 600 µg/mL (≈ 602 µM) | 25 µg/mL (≈ 25.1 µM) | 25 µg/mL (≈ 25.1 µM) | 25 µg/mL (≈ 25.1 µM) | 25 µg/mL (≈ 25.1 µM) | 23 mm | 50 µg/mL (≈ 50.1 µM) | 25 µg/mL (≈ 25.1 µM) | 18 mm | 15 mm | 510 µg/mL (≈ 511 µM) | 25 µg/mL (≈ 25.1 µM) | 12.5 µg/mL (≈ 12.5 µM) | 25 µg/mL (≈ 25.1 µM) | 12.5 µg/mL (≈ 12.5 µM) | 50 µg/mL (≈ 50.1 µM) | 50 µg/mL (≈ 50.1 µM) | 13 mm | 17 mm | inhibition zone (IZ) [4]: inactive; inhibition zone (IZ) (Aspergillus fumigatus [6]): inactive; inhibition zone (IZ) (Candida albicans [9]): inactive; MBC (Staphylococcus aureus [17]): 50 µg/mL (≈ 50.1 µM); MIC (Staphylococcus aureus [17]): 25 µg/mL (≈ 25.1 µM); MBC ([18]; IFO 40996, 48 h): 25 µg/mL (≈ 25.1 µM); MIC ([18]; IFO 40996, 48 h): 12.5 µg/mL (≈ 12.5 µM); MBC (Aspergillus fumigatus [19]): 50 µg/mL (≈ 50.1 µM); MIC (Aspergillus fumigatus [19]): 25 µg/mL (≈ 25.1 µM); zone of inhibition at 300 µg/disc (Trichophyton rubrum [20]): 9 mm; MBC (Pseudomonas aeruginosa [21]): 25 µg/mL (≈ 25.1 µM); MIC (Pseudomonas aeruginosa [21]): 25 µg/mL (≈ 25.1 µM)
2 | COc1ccc(Cc2ccc(OC)c(C3SC4C(=NN(C)C4c4ccc(F)cc4)N3c3ccc([N+](=O)[O-])cc3)c2)cc1C1SC2C(=NN(C)C2c2ccc(F)cc2)N1c1ccc([N+](=O)[O-])cc1 (stereo not drawn) | 12 mm | 200 µg/mL (≈ 213 µM) | 25 µg/mL (≈ 26.6 µM) | 12.5 µg/mL (≈ 13.3 µM) | 6.25 µg/mL (≈ 6.64 µM) | 6.25 µg/mL (≈ 6.64 µM) | 21 mm | 12.5 µg/mL (≈ 13.3 µM) | 12.5 µg/mL (≈ 13.3 µM) | 16 mm | 18 mm | 180 µg/mL (≈ 191 µM) | 25 µg/mL (≈ 26.6 µM) | 12.5 µg/mL (≈ 13.3 µM) | 25 µg/mL (≈ 26.6 µM) | 12.5 µg/mL (≈ 13.3 µM) | 25 µg/mL (≈ 26.6 µM) | 12.5 µg/mL (≈ 13.3 µM) | 20 mm | 19 mm | zone of inhibition at 300 µg/disc ([4]; IFO 40996, 48 h, read-out: IZ): 14 mm; zone of inhibition at 300 µg/disc (Aspergillus fumigatus [6]; HIC 6094, 48 h, read-out: IZ): 14 mm; zone of inhibition at 300 µg/disc (Candida albicans [9]): 21 mm; MBC (Staphylococcus aureus [17]): 25 µg/mL (≈ 26.6 µM); MIC (Staphylococcus aureus [17]): 12.5 µg/mL (≈ 13.3 µM); MBC ([18]; IFO 40996, 48 h): 25 µg/mL (≈ 26.6 µM); MIC ([18]; IFO 40996, 48 h): 12.5 µg/mL (≈ 13.3 µM); MBC (Aspergillus fumigatus [19]): 25 µg/mL (≈ 26.6 µM); MIC (Aspergillus fumigatus [19]): 12.5 µg/mL (≈ 13.3 µM); zone of inhibition at 300 µg/disc (Trichophyton rubrum [20]): 15 mm; MBC (Pseudomonas aeruginosa [21]): 12.5 µg/mL (≈ 13.3 µM); MIC (Pseudomonas aeruginosa [21]): 12.5 µg/mL (≈ 13.3 µM)
3 | COc1ccc(Cc2ccc(OC)c(C3SC4C(=NN(c5ccccc5)C4c4ccc(F)cc4)N3c3ccc(Cl)cc3)c2)cc1C1SC2C(=NN(c3ccccc3)C2c2ccc(F)cc2)N1c1ccc(Cl)cc1 (stereo not drawn) | 19 mm | 650 µg/mL (≈ 623 µM) | 6.25 µg/mL (≈ 5.99 µM) | 6.25 µg/mL (≈ 5.99 µM) | 25 µg/mL (≈ 23.9 µM) | 6.25 µg/mL (≈ 5.99 µM) | 20 mm | 25 µg/mL (≈ 23.9 µM) | 12.5 µg/mL (≈ 12 µM) | 18 mm | 20 mm | 810 µg/mL (≈ 776 µM) | 25 µg/mL (≈ 23.9 µM) | 12.5 µg/mL (≈ 12 µM) | 12.5 µg/mL (≈ 12 µM) | 12.5 µg/mL (≈ 12 µM) | 50 µg/mL (≈ 47.9 µM) | 12.5 µg/mL (≈ 12 µM) | 21 mm | 22 mm | inhibition zone (IZ) [4]: inactive; inhibition zone (IZ) (Aspergillus fumigatus [6]): inactive; inhibition zone (IZ) (Candida albicans [9]): inactive; MBC (Staphylococcus aureus [17]): 50 µg/mL (≈ 47.9 µM); MIC (Staphylococcus aureus [17]): 25 µg/mL (≈ 23.9 µM); MBC ([18]; IFO 40996, 48 h): 12.5 µg/mL (≈ 12 µM); MIC ([18]; IFO 40996, 48 h): 6.25 µg/mL (≈ 5.99 µM); MBC (Aspergillus fumigatus [19]): 25 µg/mL (≈ 23.9 µM); MIC (Aspergillus fumigatus [19]): 12.5 µg/mL (≈ 12 µM); zone of inhibition at 300 µg/disc (Trichophyton rubrum [20]): 17 mm; MBC (Pseudomonas aeruginosa [21]): 12.5 µg/mL (≈ 12 µM); MIC (Pseudomonas aeruginosa [21]): 6.25 µg/mL (≈ 5.99 µM)
4 | COc1ccc(N2N=C3C(SC(c4cc(Cc5ccc(OC)c(C6SC7C(=NN(c8ccc(OC)cc8)C7c7ccc(F)cc7)N6c6ccc([N+](=O)[O-])cc6)c5)ccc4OC)N3c3ccc([N+](=O)[O-])cc3)C2c2ccc(F)cc2)cc1 (stereo not drawn) | 9 mm | 810 µg/mL (≈ 720 µM) | 12.5 µg/mL (≈ 11.1 µM) | 6.25 µg/mL (≈ 5.55 µM) | 25 µg/mL (≈ 22.2 µM) | 12.5 µg/mL (≈ 11.1 µM) | 21 mm | 25 µg/mL (≈ 22.2 µM) | 12.5 µg/mL (≈ 11.1 µM) | 14 mm | 16 mm | 920 µg/mL (≈ 818 µM) | 12.5 µg/mL (≈ 11.1 µM) | 6.25 µg/mL (≈ 5.55 µM) | 25 µg/mL (≈ 22.2 µM) | 12.5 µg/mL (≈ 11.1 µM) | 50 µg/mL (≈ 44.4 µM) | 12.5 µg/mL (≈ 11.1 µM) | 20 mm | 21 mm | inhibition zone (IZ) [4]: inactive; inhibition zone (IZ) (Aspergillus fumigatus [6]): inactive; zone of inhibition at 300 µg/disc (Candida albicans [9]): 13 mm; MBC (Staphylococcus aureus [17]): 25 µg/mL (≈ 22.2 µM); MIC (Staphylococcus aureus [17]): 12.5 µg/mL (≈ 11.1 µM); MBC [18]: inactive; MIC [18]: inactive; MBC (Aspergillus fumigatus [19]): 25 µg/mL (≈ 22.2 µM); MIC (Aspergillus fumigatus [19]): 12.5 µg/mL (≈ 11.1 µM); inhibition zone (IZ) (Trichophyton rubrum [20]): inactive; MBC (Pseudomonas aeruginosa [21]): 25 µg/mL (≈ 22.2 µM); MIC (Pseudomonas aeruginosa [21]): 12.5 µg/mL (≈ 11.1 µM)
